Laboratory results from patent US20160200733A1, “SUBSTITUTED THIENO[2,3-B]PYRIDINE-2-CARBOXAMIDE ANALOGS AS POSITIVE ALLOSTERIC MODULATORS OF THE MUSCARINIC ACETYLCHOLINE RECEPTOR M4” (Vanderbilt University, priority 2013, published 2016).

Target: T1, mAChR hM4 (Homo sapiens, UniProt P08173)
T1 construct: expressed in transfected cells; host or cells: CHO-K1 (Chinese hamster ovary) cells
T1 sequence (P08173 1-479): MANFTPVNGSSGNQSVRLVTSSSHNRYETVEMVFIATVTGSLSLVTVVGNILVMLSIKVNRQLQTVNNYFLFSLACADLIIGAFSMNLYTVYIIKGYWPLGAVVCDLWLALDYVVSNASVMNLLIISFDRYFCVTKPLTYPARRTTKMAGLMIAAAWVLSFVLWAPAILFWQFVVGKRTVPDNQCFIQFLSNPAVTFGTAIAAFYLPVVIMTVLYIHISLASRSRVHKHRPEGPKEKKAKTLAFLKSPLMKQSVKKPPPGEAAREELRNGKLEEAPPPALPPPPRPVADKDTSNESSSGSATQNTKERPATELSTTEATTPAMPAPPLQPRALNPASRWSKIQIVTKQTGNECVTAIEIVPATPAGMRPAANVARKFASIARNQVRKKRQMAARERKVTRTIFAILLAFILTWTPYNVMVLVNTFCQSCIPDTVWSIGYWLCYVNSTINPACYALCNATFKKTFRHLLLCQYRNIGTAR
Test: mAChR M4 cell-based functional assay (calcium flux, potentiation of EC20 acetylcholine response)
Details: mAChR hM4 cell-line; for EC50: >10,000 estimated for low potency compounds lacking a plateau
Excerpt: In one aspect, the disclosed compounds potentiate the agonist response (e.g., acetylcholine) of mAChR M4. In a further aspect, the disclosed compounds increase mAChR M4 response to non-maximal concentrations of agonist in the presence of compound compared to the response to agonist in the absence of compound. […] For example, activation of mAChR M4 activity can be determined by measurement of calcium flux in response to agonist, e.g. acetylcholine, in cells loaded with a Ca^2+-sensitive fluorescent dye (e.g., Fluo-4). In a further aspect, the calcium flux was measured as an increase in fluorescent static ratio. In a yet further aspect, positive allosteric modulator activity was analyzed as a concentration-dependent increase in the EC20 acetylcholine response (i.e. the response of mAChR M4 at a concentration of acetylcholine that yields 20% of the maximal response).
In one aspect, the disclosed compounds activate mAChR M4 response as an increase in calcium fluorescence in mAChR M4-transfected CHO-K1 cells in the presence of the compound, compared to the response of equivalent CHO-K1 cells in the absence of the compound. […] In a further aspect, the mAChR M4-transfected CHO-K1 cells are transfected with human mAChR M4. In a still further aspect, the mAChR M4-transfected CHO-K1 cells are transfected with rat mAChR M4.
Substituted 3-aminothieno[2,3-c]pyridine-2-carboxamide analogs were synthesized as described above. Activity (EC50 and Emax) was determined in the mAChR M4 cell-based functional assay as described above, and the data are shown in Table II for assays conducted using mAChR hM4 cell-line. The compound number corresponds to the compound numbers used in Table I.

Cc1cnc2sc(C(=O)NC3COC3)cc2c1C [Compound 102, 4,5-dimethyl-N-(oxetan-3-yl)thieno[2,3-b]pyridine-2-carboxamide]
Emax at 30 µM (% ACh maximum at 30 μM): 60% | EC50: > 10 µM

Cc1nc2sc(C(=O)NCC3(C)COC3)c(Cl)c2c(C)c1Cl [Compound 125, 3,5-dichloro-4,6-dimethyl-N-((3-methyloxetan-3-yl)methyl)thieno[2,3-b]pyridine-2-carboxamide]
EC50: > 10 µM

COc1ccc(C2CC2NC(=O)c2sc3nc(C)cc(C)c3c2-c2cnn(C)c2)cc1 (centres unmarked) [Compound 68, N-(2-(4-methoxyphenyl)cyclopropyl)-4,6-dimethyl-3-(1-methyl-1H-pyrazol-4-yl)thieno[2,3-b]pyridine-2-carboxamide]
EC50: > 10 µM

Cc1cc(C)c2c(C)c(C(=O)NCc3ccc4c(c3)OCCO4)sc2n1 [Compound 31, N-((2,3-dihydrobenzo[b][1,4]dioxin-6-yl)methyl)-3,4,6-trimethylthieno[2,3-b]pyridine-2-carboxamide]
Emax at 30 µM (% ACh maximum at 30 μM): 57% | EC50: 2.2 µM

Cc1cc(C)c2cc(C(=O)NCc3cnn(-c4ccccc4)c3)sc2n1 [Compound 77, 4,6-dimethyl-N-((1-phenyl-1H-pyrazol-4-yl)methyl)thieno[2,3-b]pyridine-2-carboxamide]
EC50: > 10 µM

Cc1nc2sc(C(=O)NC3COC3)c(C)c2c(C)c1Cl [Compound 63, 5-chloro-3,4,6-trimethyl-N-(oxetan-3-yl)thieno[2,3-b]pyridine-2-carboxamide]
Emax at 30 µM (% ACh maximum at 30 μM): 76% | EC50: 0.41 µM

COc1ccc(CN(C)C(=O)c2sc3nc(C)c(Cl)c(C)c3c2Br)cc1 [Compound 43, 3-bromo-5-chloro-N-(4-methoxybenzyl)-N,4,6-trimethylthieno[2,3-b]pyridine-2-carboxamide]
EC50: > 10 µM

Cc1cc(C)c2c(Br)c(C(=O)N(C)Cc3ccc(S(C)(=O)=O)cc3)sc2n1 [Compound 37, 3-bromo-N,4,6-trimethyl-N-(4-(methylsulfonyl)benzyl)thieno[2,3-b]pyridine-2-carboxamide]
EC50: > 10 µM

Cc1nc2sc(C(=O)NC3CCOC3)c(Br)c2c(C)c1Cl (centres unmarked) [Compound 44, 3-bromo-5-chloro-4,6-dimethyl-N-(tetrahydrofuran-3-yl)thieno[2,3-b]pyridine-2-carboxamide]
Emax at 30 µM (% ACh maximum at 30 μM): 54% | EC50: 0.59 µM

Cc1nc2sc(C(=O)NC3(C)COC3)c(Cl)c2c(C)c1Cl [Compound 122, 3,5-dichloro-4,6-dimethyl-N-(3-methyloxetan-3-yl)thieno[2,3-b]pyridine-2-carboxamide]
Emax at 30 µM (% ACh maximum at 30 μM): 61% | EC50: 2.6 µM

Cc1nc2sc(C(=O)NCC3CCC3)c(-c3cnn(C)c3)c2c(C)c1Cl [Compound 105, 5-chloro-N-(cyclobutylmethyl)-4,6-dimethyl-3-(1-methyl-1H-pyrazol-4-yl)thieno[2,3-b]pyridine-2-carboxamide]
EC50: > 10 µM

Cc1nc2sc(C(=O)NCC3CC3)c(-c3cnn(C)c3)c2c(C)c1Cl [Compound 112, 5-chloro-N-(cyclopropylmethyl)-4,6-dimethyl-3-(1-methyl-1H-pyrazol-4-yl)thieno[2,3-b]pyridine-2-carboxamide]
EC50: > 10 µM

Cc1nc2sc(C(=O)NC3(C)COC3)c(C3CC3)c2c(C)c1Cl [Compound 56, 5-chloro-3-cyclopropyl-4,6-dimethyl-N-(3-methyloxetan-3-yl)thieno[2,3-b]pyridine-2-carboxamide]
Emax at 30 µM (% ACh maximum at 30 μM): 38% | EC50: 1.4 µM

CSc1ccc(CNC(=O)c2sc3nc(C)cc(C)c3c2C)cc1 [Compound 27, 3,4,6-trimethyl-N-(4-(methylthio)benzyl)thieno[2,3-b]pyridine-2-carboxamide]
Emax at 30 µM (% ACh maximum at 30 μM): 49% | EC50: 2.2 µM

Cc1cc(C)c2c(C)c(C(=O)NCc3ccc(OC(F)(F)F)cc3)sc2n1 [Compound 21, 3,4,6-trimethyl-N-(4-(trifluoro-methoxy)benzyl)thieno[2,3-b]pyridine-2-carboxamide]
EC50: > 10 µM

Cc1nc2sc(C(=O)NCc3ccc(S(=O)(=O)C(F)(F)F)cc3)c(-c3cnn(C)c3)c2c(C)c1Cl [Compound 95, 5-chloro-4,6-dimethyl-3-(1-methyl-1H-pyrazol-4-yl)-N-(4-((trifluoromethyl)sulfonyl)benzyl)thieno[2,3-b]pyridine-2-carboxamide]
EC50: > 10 µM

Cc1nc2sc(C(=O)NCC3CC3)c(Cl)c2c(C)c1Cl [Compound 119, 3,5-dichloro-N-(cyclopropylmethyl)-4,6-dimethylthieno[2,3-b]pyridine-2-carboxamide]
EC50: > 10 µM

Cc1cc(C)c2cc(C(=O)NCC3CCN(c4ccccc4)C3)sc2n1 (centres unmarked) [Compound 80, 4,6-dimethyl-N-((1-phenylpyrrolidin-3-yl)methyl)thieno[2,3-b]pyridine-2-carboxamide]
EC50: > 10 µM

Cc1nc2sc(C(=O)NC3(C)COC3)c(Br)c2c(C)c1Cl [Compound 48, 3-bromo-5-chloro-4,6-dimethyl-N-(3-methyloxetan-3-yl)thieno[2,3-b]pyridine-2-carboxamide]
Emax at 30 µM (% ACh maximum at 30 μM): 54% | EC50: 0.57 µM

Cc1nc2sc(C(=O)NCc3ccc(S(C)(=O)=O)cc3)c(Br)c2c(C)c1Cl [Compound 45, 3-bromo-5-chloro-4,6-dimethyl-N-(4-(methylsulfonyl)benzyl)thieno[2,3-b]pyridine-2-carboxamide]
EC50: > 10 µM

Cc1cc(C)c2c(-c3cnn(C)c3)c(C(=O)NCc3ccc(S(C)(=O)=O)cc3)sc2n1 [Compound 36, 4,6-dimethyl-3-(1-methyl-1H-pyrazol-4-yl)-N-(4-(methylsulfonyl)benzyl)thieno[2,3-b]pyridine-2-carboxamide]
EC50: > 10 µM

Cc1cc(C)c2c(C)c(C(=O)N3CCCC3)sc2n1 [Compound 24, pyrrolidin-1-yl(3,4,6-trimethylthieno[2,3-b]pyridin-2-yl)methanone]
EC50: > 10 µM

Cc1nc2sc(C(=O)NC3COC3)c(Br)c2c(C)c1Cl [Compound 61, 3-bromo-5-chloro-4,6-dimethyl-N-(oxetan-3-yl)thieno[2,3-b]pyridine-2-carboxamide]
Emax (%) (% ACh maximum at 30 μM): 70% | EC50: 0.36 µM

COc1ccc(C(C)NC(=O)c2sc3nc(C)cc(C)c3c2C)cc1 (centres unmarked) [Compound 29, N-(1-(4-methoxyphenyl)ethyl)-3,4,6-trimethylthieno[2,3-b]pyridine-2-carboxamide]
EC50: > 10 µM

Cc1cc(C)c2c(Br)c(C(=O)NC3COC3)sc2n1 [Example 2, 3-bromo-4,6-dimethyl-N-(oxetan-3-yl)thieno[2,3-b]pyridine-2-carboxamide]
Emax at 30 µM (% ACh maximum at 30 μM): 68% | EC50: 3.3 µM

Cc1nc2sc(C(=O)NCC3CC3)c(Br)c2c(C)c1Cl [Compound 42, 3-bromo-5-chloro-N-(cyclopropylmethyl)-4,6-dimethylthieno[2,3-b]pyridine-2-carboxamide]
EC50: > 10 µM

Cc1nc2sc(C(=O)NCC3CCC3)c(Cl)c2c(C)c1Cl [Compound 129, 3,5-dichloro-N-(cyclobutylmethyl)-4,6-dimethylthieno[2,3-b]pyridine-2-carboxamide]
EC50: > 10 µM

Cc1cc(C)c2c(-c3ccccc3)c(C(=O)NCc3ccc(S(C)(=O)=O)cc3)sc2n1 [Compound 34, 4,6-dimethyl-N-(4-(methylsulfonyl)benzyl)-3-phenylthieno[2,3-b]pyridine-2-carboxamide]
EC50: > 10 µM
